In patent US9738626B2, “Antagonists of prostaglandin EP3 receptor” (Pfizer Inc., priority 2014, dated 2017):

Columns and labels:
[1] = biological target: human prostaglandin E3 receptor (EP3) (Homo sapiens (Human), UniProt P43115); test: Functional activity: cellular cAMP HTRF assay, antagonism of sulprostone; format: cell-based; conditions: CHO-K1 cells expressing human EP3; cAMP with 10 nM sulprostone and forskolin; geometric mean
Protocol: The functional activity of two Examples was determined by measuring the effect on cellular cAMP levels, under conditions whereby antagonism of the EP3 receptor could be measured. Compound activity was expressed as an IC50 value, defined as the concentration of compound required to decrease agonist (sulprostone) activity by 50%. CHO-K1 cells expressing human prostaglandin E3 receptor (EP3, DiscoveRx #95-0159C2) were maintained in Ham's F-12 Nutrient Mixture (Invitrogen #11765-054) containing L-Glutamine (Gibco #25030-081), Geneticin (Gibco #10131-027), Pen Strep (Gibco #15070-063) and 10% heat-inactivated fetal bovine serum (Sigma #F4135). […] Cellular cAMP levels were determined using a Homogeneous Time-Resolved Fluorescence (HTRF) cAMP detection kit (cAMP HI-Range Assay Kit; CisBio #62AM6PEJ). […] The assay plates were then held at r.t. and after 60 minutes, changes in the HTRF signal were read with an Envision 2104 multi-label plate reader using excitation of 330 nm and emissions of 615 and 665 nm. Raw data were converted to nM cAMP by interpolation from a cAMP standard curve (as described in the cAMP detection kit protocol) and IC50 determinations were made from the response curves analyzed with a curve fitting program, similar to GraphPad PRISM® and using a 4-parameter logistic dose response equation. […]

human EP3 receptor = human EP3 receptor (Homo sapiens (Human), UniProt P43115); test: EP3 Radioligand SPA Binding Assay; conditions: [3H]-PGE2 displacement, Millipore EP3 Chem1 membranes; geometric mean; Ki from IC50 by Cheng-Prusoff
Protocol: To measure the ability of test compounds in the present invention to bind to the human EP3 receptor, and therefore have the potential to antagonize PGE2 activity, radioligand displacement assays were performed. Compound affinity was expressed as a Ki value, defined as the concentration of compound required to decrease [^3H] PGE2 binding by 50% for a specific membrane batch at a given concentration of radioligand.
Test compounds were half log serially diluted in 100% DMSO (J. T. Baker #922401). 1 μL of each compound was added to appropriate wells of a 384-well plate (Matrix Cat #4322). Unlabeled PGE2 (Tocris Cat #2296) at a final concentration of 1 μM was used to determine non-specific binding. 1 μL of 100% DMSO (J. T. Baker #922401) was used to determine total binding. Millipore EP3 Chem1 membranes (prepared in-house from cell paste derived from the Millipore ChemiSCREEN™ Human Recombinant EP3 Prostanoid Receptor Calcium-Optimized Stable Cell Line (Millipore Cat # HTS092C, http://www.millipore.com/catalogue/item/hts092c)) were thawed and diluted in binding buffer (50 mM Hepes pH 7.4 (Lonza Cat #17-737), 5 mM MgCl2 (Sigma-M1028), and 0.1% BSA (Sigma A-7409)) to a final concentration of 1 μg/25 μL. 25 μL of diluted membranes were added to prepared compound plates. WGA coated PVT SPA Beads (Perkin Elmer Cat # RPNQ0060) were diluted in binding buffer to a concentration of 4 μg/ul, and 25 μL of the SPA bead mixture was then added to each well for a final assay concentration of 100 μg/well. [^3H]-PGE2 (Perkin Elmer Cat #NET428) was diluted in binding buffer to a concentration of […], and […] was added to all wells for a final assay concentration of 1.125 nM. Plates were incubated for 30 minutes at r.t. (approximately 25° C.) with shaking. Radioactivity associated with each well was measured after a 10 hour incubation using a Wallac Trilux MicroBeta plate-based scintillation counter and a normalized protocol at 1 minute read/well. The Kd for [^3H]-PGE2 was determined by carrying out saturation binding, with data analysis by non-linear regression, fit to a one-site hyperbola (GraphPad Prism®). IC50 determinations were made from competition curves, analyzed with a proprietary curve fitting program (SIGHTS), similar to GraphPad PRISM® and a 4-parameter logistic dose response equation. Ki values were calculated from IC50 values, using the Cheng-Prusoff equation.
Table 5 below provides the Ki values of Examples for the binding affinity against human EP3 in accordance with the above-described assay. Results are reported as geometric mean Ki values, where the example is identified as a free base or designated salt that is made as a solution for the experiment and N is the number of samples tested for that example and is the sum of the forms identified with the corresponding number of the respective form in parentheses.

Chain of human EP3 receptor (P43115 whole entry): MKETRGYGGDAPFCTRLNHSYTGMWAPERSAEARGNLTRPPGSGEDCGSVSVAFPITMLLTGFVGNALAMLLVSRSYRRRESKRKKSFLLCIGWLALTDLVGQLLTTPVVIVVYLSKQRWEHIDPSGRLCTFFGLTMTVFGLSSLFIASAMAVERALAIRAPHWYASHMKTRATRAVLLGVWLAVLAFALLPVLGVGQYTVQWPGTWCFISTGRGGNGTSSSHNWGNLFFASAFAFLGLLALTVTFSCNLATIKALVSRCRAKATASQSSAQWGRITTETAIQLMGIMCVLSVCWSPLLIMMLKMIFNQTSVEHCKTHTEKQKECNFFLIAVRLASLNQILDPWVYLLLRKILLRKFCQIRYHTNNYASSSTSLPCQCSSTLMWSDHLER
Chain of human prostaglandin E3 receptor (EP3) (P43115 whole entry): as above

Compound | IC50 [1] [nM] | Ki (human EP3 receptor) [nM]
Cc1cccc2ncc(-c3ccc([C@@]4(C)CCCNC4=O)c(=O)[nH]3)cc12 [Example 1, (R)-3-(3-Methyl-2-oxopiperidin-3-yl)-6-(5-methylquinolin-3-yl)pyridin-2(1H)-one] | 30.8 | 3.3
Cc1cc(-c2ccc([C@@]3(C)CCCNC3=O)c(=O)[nH]2)cc2ncccc12 [Example 2, (R)-3-(3-Methyl-2-oxopiperidin-3-yl)-6-(5-methylquinolin-7-yl)pyridin-2(1H)-one] | – | 7.2
CCc1cc(-c2ccc([C@@]3(C)CCCNC3=O)c(=O)[nH]2)cc2ncccc12 [Example 3, (R)-6-(5-Ethylquinolin-7-yl)-3-(3-methyl-2-oxopiperidin-3-yl)pyridin-2(1H)-one] | – | 4.6
C[C@]1(c2ccc(-c3cc(Cl)c4cccnc4c3)[nH]c2=O)CCCNC1=O [Example 4, (R)-6-(5-Chloroquinolin-7-yl)-3-(3-methyl-2-oxopiperidin-3-yl)pyridin-2(1H)-one] | – | 8.9
C[C@]1(c2ccc(-c3cc(C4CC4)c4cccnc4c3)[nH]c2=O)CCCNC1=O [Example 5, (R)-6-(5-Cyclopropylquinolin-7-yl)-3-(3-methyl-2-oxopiperidin-3-yl)pyridin-2(1H)-one] | – | 7.3
C[C@]1(c2ccc(-c3cc(F)c4cccnc4c3)[nH]c2=O)CCCNC1=O [Example 6, (R)-6-(5-Fluoroquinolin-7-yl)-3-(3-methyl-2-oxopiperidin-3-yl)pyridin-2(1H)-one] | – | 48.6
Cc1cccc2ncc(-c3ccc([C@@]4(C)CCNC4=O)c(=O)[nH]3)cc12 [Example 7, (R)-3-(3-Methyl-2-oxopyrrolidin-3-yl)-6-(5-methylquinolin-3-yl)pyridin-2(1H)-one] | 34.1 | 18.6
